Test results as given in BindingDB's records for doi:10.1021/jm0704200.
pEC50, pIC50: −log10 of the molar value.

Key:
[1] = Antagonist activity at human dopamine D3 receptor expressed in HEK293 cells by mitogenesis assay
[2] = Agonist activity at human dopamine D2 receptor expressed in HEK293 cells by mitogenesis assay
[3] = Antagonist activity at human dopamine D2 receptor expressed in HEK293 cells by mitogenesis assay

pIC50 [1] | pEC50 [2] | pIC50 [3] | Structure (SMILES)
7.84 | 6.82 | 6.17 | O=C(NC[C@H]1C[C@@H]1CN1CCN(c2cccc(Cl)c2Cl)CC1)c1ccc(-c2ccccn2)cc1 [N-(2-(4-(2,3-dichlorophenyl)piperazin-1-ylmethyl)-trans-cyclopropylmethyl)-4-pyridin-2-ylbenzamide]
8.54 | – | – | COc1ccccc1N1CCN(CCCCNC(=O)c2ccc(-c3ccccn3)cc2)CC1 [N-(4-(4-(2-methoxyphenyl)piperazin-1-yl)butyl)-4-pyridin-2-ylbenzamide]
8.66 | – | – | COc1ccccc1N1CCN(CCCCNC(=O)c2ccc3c(c2)Cc2ccccc2-3)CC1 [N-(4-(4-(2-methoxyphenyl)piperazin-1-yl)butyl)-9H-fluorene-2-carboxamide]
– | 7.04 | – | O=C(NCCCCN1CCN(c2cccc(Cl)c2Cl)CC1)c1ccc(-c2ccccn2)cc1 [N-{4-[4-(2,3-Dichloro-phenyl)-piperazin-1-yl]-butyl}-4-pyridin-2-yl-benzamide]
